The values that follow come from US12590309B2, “Reprogramming of lipid metabolism to inhibit T cell senescence and enhance tumor immunotherapy” (Saint Louis University, priority 2019, dated 2026).

Read-outs that look alike come from different tables or passages of the source.

The test system of assay [1] is senescent T cells. As to the kind of experiment: Suppressive activity of senescent T cells, [3H]-thymidine proliferation assay. In kind it is cell-based, human. The settings on record: data not shown. The protocol:
Functional proliferation assay. Proliferation assays were performed using a [^3H]-thymidine incorporation assay, as the inventors previously described (Liu et al., 2018; Ye et al., 2014; 2012; Peng et al., 2005; 2007). Naïve CD4+ T cells (1×10^5/well) purified from healthy donors were co-cultured with Treg-treated T cells at a ratio of 10:1 in 200 μl of T cell assay medium containing 2% human AB. After 56 hours of culture, [3H]-thymidine was added at a final concentration of 1 μCi/well, followed by an additional 16 hours of culture. The incorporation of [^3H]-thymidine was measured with a liquid scintillation counter.

In assay [2] the test system is senescent T cells. As to the kind of experiment: Inflammatory cytokine mRNA by real-time qPCR in responder/senescent T cells. In kind it is cell-based, human. In general terms: In qPCR the cycle at which signal appears reflects the starting amount.
Protocol: (§1) Reverse-transcription quantitative PCR analysis. Total RNA was extracted from T cells using Trizol reagent (Invitrogen), and cDNA was transcribed using a SuperScript II RT kit (Invitrogen), both according to manufacturers' instructions. Expression levels of each gene were determined by reverse-transcription PCR using specific primers, and mRNA levels in each sample were normalized to the relative quantity of the housekeeping GAPDH or β-actin gene expression. All experiments were performed in triplicate.
For assay [3], the system named is naïve CD4+ and CD8+ T cells co-cultured with nTreg cells. As to the kind of experiment: SA-β-gal staining, T cell senescence induced by Treg cells. The settings on record: for senescence induction in T cells co-cultured with nTreg cells, lipid supplement: naïve CD4+ T cells, lipids 5 μM or 10 μM, 3 days. In kind it is cell-based, human.
Protocol: Senescence associated β-galactosidase staining. Senescence associated β-galactosidase (SA-β-gal) activity in senescent T cells was detected as the inventors previously described 23,32,33. Naive CD4+ or CD8+ T cells were labeled with CFSE (4.5 μM), and co-cultured with Treg cells at a ratio of 4:1 in anti-CD3-coated 24-well plates for 3 days. Co-cultured naïve T cells were then separated from co-cultures using FACS sorting gated on CFSE positive populations, and then stained with SA-β-Gal staining reagent. […] For some experiments, naïve T cells were pretreated with the following inhibitors and then co-cultured with Treg cells. SA-β-gal expression in the co-cultured naïve T cells was determined. These inhibitors include: ACAT inhibitor Avasimable (5 μM and 10 μM), lipase inhibitor orlistat (10 μM), and cPLA2α inhibitor MAFP (1 μM and 5 μM) (Cayman Chemical); ATM inhibitor KU55933 (10 μM, Tocris Bioscience); stat1 inhibitor MTA (5 μM), stat3 inhibitor S3I-201 (10 μM) (Sigma-Aldrich); MAPK inhibitors including U0126 (10 μM) and SB203580 (10 μM) (Calbiochemistry).
(§2) Lipid supplement assay. Lysophosphatidylcholine (LPC, 16:0 LPC, 16:0 aLPC, and 16:0 pLPC), Phosphatidylethanolamine (PE, 16:0 lyso PE) and Phosphatidylserine (PS, 16:0 lyso PS) were purchased from the Avanti Polar Lipids, INC. C2-Ceramide was purchased from Sigma. All the lipids were dissolved in chloroform, evaporated under a gentle stream of nitrogen and then immediately dissolved in an ethanol vehicle (0.1%). Naïve CD4+ T cells were first treated with or without the lipids (5 μM or 10 μM) for 1 hour and then co-cultured with Treg cells at a ratio of 4:1 in anti-CD3-coated (2 μg/ml) plates for 3 days. The treated naïve CD4+ T cells were then performed SA-β-gal and Oil red O staining.
The subject of assay [4] is MAPK and STAT1/STAT3 signaling. As to the kind of experiment: Phosphorylation of p38, ERK, STAT1 and STAT3 by flow cytometry in Treg-treated CD4+ T cells. In kind it is cell-based, human. To be noted: pretreated 24 hours (KU55933 10 μM; MAFP 5 μM), Treg co-culture 3 days.
Assay [5] relates to naïve CD4+ and CD8+ T cells co-cultured with nTreg cells. Briefly: Oil-Red O staining, LD formation in T cells co-cultured with Treg cells. In kind it is cell-based, human.
Protocol: as §2
(§3) Oil-Red O staining. The treated T cells were washed in PBS (pH 7.2), fixed with 4% formaldehyde for 30 minutes, and treated with 60% isopropanol for 2-5 minutes. Cells were further stained with freshly prepared Oil-Red O staining solution (Sigma-Aldrich) in isopropanol (60%) for 5 minutes, followed by quick rinse with isopropanol (60%). The stained cells were then washed with H2O thoroughly and lipid droplets in T cells were evaluated using a light microscope.
For assay [6], the system named is cPLA2α. As to the kind of experiment: cPLA2α, p21 and p53 expression in Treg-treated T cells (western blot, qPCR, flow cytometry). In kind it is cell-based, human.
Protocol: Flow cytometry analysis. The expression markers on T cells were determined by flow cytometry analysis after surface staining or intracellular staining with anti-human specific antibodies conjugated with PE or Alexa Flour488. The human antibodies included: anti-CD27, anti-CD28, anti-phospho-ERK (Thr202/Tyr204), anti-phospho-p38 (Thr180/Tyr182), anti-phospho-STAT1 (Tyr701), anti-phospho-STAT3 (Tyr705 or Ser727), anti-phospho-ATM, anti-phospho-H2AX, anti-phospho-CHK2, anti-phospho-53BP1, and anti-cPLA2α, which were purchased from BD Biosciences, Biolegend, or Cell Signaling Technology. For Bodipy 493/503 staining (Thermo Fisher Scientific), T cells were incubated with Bodipy 493/503 (1 μg/ml) at room temperature for 15 minutes. All stained cells were analyzed on a LSR II cytometer (BD Bioscience) and data analyzed with FlowJo software (Tree Star).
Western-blotting analysis. CFSE-labeled naïve CD4+ or CD8+ T cells were co-cultured with Treg or control T cells at a ratio of 4:1 in the anti-CD3 antibody-precoated plates (2 μg/ml) for 3 days. In some experiments, T cells were pretreated with the cPLA2α inhibitor MAFP (5 M) for 24 hours, and then co-cultured with Treg cells. Treated T cells were then sorted by FACS gating on CFSE positive T cells. Whole cell lysates of the purified CD4+ T cells were prepared for western blot analyses. Western blots were developed with the Chemiluminescent Substrate (KPL, Maryland). The rabbit polyclonal antibodies used in the western blot analyses are as following: anti-cPLA2α, anti-P53, anti-P21, and anti-GAPDH. All antibodies were purchased from the Cell Signaling Technology.
as §1
For assay [7], the system named is naïve CD8+ T cells co-cultured with nTreg cells. Briefly: Lipidomics (ESI-MS/MS) of Treg-induced senescent T cells. In kind it is cell-based, human.
Protocol: Lipidomics analysis. Lipids from T cells were extracted by the method of Bligh and Dyer in the presence of internal standards including eicosanoic acid, 1-0-heptadecanoyl-LPC, dieicosanoyl-PC, ditetradecanoyl-PE, ditetradecanoyl-PS, N-heptadecanoyl-Cer, and cholesteryl heptadecanoate (Bligh and Dyer, 1959). Extracted lipids were resuspended in methanol/chloroform (2:1, by vol.) and analyzed by ESI-MS in the direct infusion mode at a flow rate of 3 μl/min using a Thermo Electron TSQ Quantrum Ultra® instrument. Samples were analyzed in both the positive and negative ion mode using a shotgun lipidomics approach (Han and Gross, 2005). For LPC, neutral loss (NL) scanning of 59.1 was monitored in the positive ion mode for sodiated molecular ions. NL scanning of 368.5 was performed for sodiated CE molecular species in the positive ion mode (Bowden et al., 2011). PE was derivatized to fMOC-PE species and monitored in negative ion mode using NL scanning of 222.2. Neutral loss scanning for Cer (NL 256.2), PC (NL50) and PS (NL 87) was performed in the negative ion mode (Han and Gross, 2005). Fatty acids were converted to pentafluorobenzyl esters and quantified using negative ion chemical ionization detection and gas chromatography (Quehenberger et al., 2010). Spectra were averaged over 3-5 min and processed utilizing Xcalibur® software (Thermo Electron). Individual molecular species were quantified by comparing the ion intensity of individual molecular species to that of the appropriate internal standards following corrections for type I and type II 13C isotope effects (Han and Gross, 2005). Additional corrections were made from response curves for CE molecular species (Bowden et al., 2011). Each sample was normalized to cell number, and values are expressed per million cells.
Assay [8] deals with naïve T cells. As to the kind of experiment: SA-β-gal staining of naïve T cells cultured with the substance alone. In kind it is cell-based, human.
Protocol: Senescence associated β-galactosidase staining. […] Naive CD4+ or CD8+ T cells were labeled with CFSE (4.5 μM), and co-cultured with Treg cells at a ratio of 4:1 in anti-CD3-coated 24-well plates for 3 days. Co-cultured naïve T cells were then separated from co-cultures using FACS sorting gated on CFSE positive populations, and then stained with SA-β-Gal staining reagent. For tumor-induced T cell senescence, anti-CD3 activated naïve CD4+ T cells or CD8+ T cells were co-cultured with or without tumor cells at ratio of 1:1 for 1 day and then separated and cultured for additional 3 days. For some experiments, naïve T cells were pretreated with the following inhibitors and then co-cultured with Treg cells. SA-β-gal expression in the co-cultured naïve T cells was determined. These inhibitors include: ACAT inhibitor Avasimable (5 μM and 10 μM), lipase inhibitor orlistat (10 μM), and cPLA2α inhibitor MAFP (1 μM and 5 μM) (Cayman Chemical); ATM inhibitor KU55933 (10 μM, Tocris Bioscience); stat1 inhibitor MTA (5 μM), stat3 inhibitor S3I-201 (10 μM) (Sigma-Aldrich); MAPK inhibitors including U0126 (10 μM) and SB203580 (10 μM) (Calbiochemistry).
The test system of assay [9] is naïve T cells. Briefly: Oil-Red O staining of naïve T cells cultured with the substance alone. In kind it is cell-based, human.
Protocol: as §3
Assay [10] relates to B16F10 tumor. As to the kind of experiment: B16F10 melanoma, Pmel-1 T cell adoptive transfer therapy model in C57BL/6 mice. To be noted: Pmel-1 T cells pretreated with ATK 0.5 μM 2 hours; ATK 10 mg·kg-1/mouse i.p. day 1, 4, 7, 10.
Setting [11] is: naïve CD4+ and CD8+ T cells pretreated with inhibitor 24 hours, co-cultured with nTreg 4:1, 3 days.
Where [12] appears, read: naïve CD4+ and CD8+ T cells pretreated with inhibitor 24 hours, co-cultured with nTreg 4:1, anti-CD3, 3 days.
Where [13] appears, read: pretreated with inhibitor 24 hours, Treg co-culture.
Setting [14] is: anti-CD3 coated plates, 3 days, no Treg cells.
Setting [15] is: CD8+ T cells pretreated with inhibitor 24 hours, nTreg co-culture 3 days.

For `O=CC[C@@H](O)[C@H](O)[C@H](O)CO` [2-DG], the “suppressive activity of senescent T cells on proliferation of effector T cells” value in assay [1] is recorded as “inhibited their suppressive activity”. For the same molecule, in assay [2] (senescent CD8+ T cells, 3-BrPA (30 μM) or 2-DG (2 mM), additional 1 day), the “secretion of pro-inflammatory cytokines by senescent T cells” value is “significantly decreased”.

As to Phosphatidylserine [PS], in [3], the “senescence induction in T cells co-cultured with nTreg cells, lipid supplement” value (“senescence induction” for short) is “markedly prevented senescence induction”.

For the molecule `O=c1cc(-c2cccc3c2Sc2ccccc2S3)oc(N2CCOCC2)c1` [KU55933], the “phosphorylation of p38, ERK, STAT1 and STAT3 in Treg-treated CD4+ T cells” value in assay [4] was “prevented phosphorylation of MAPKs and STAT1/STAT3”. In addition, the “LD formation (Oil red O+ T cell populations) induced by Treg cells” value (from here on “LD formation … by Treg cells”) in assay [5] (setting [11]) was “dramatically reduced”. Also, in [3] (setting [12]), the “senescent (SA-β-gal+) T cell populations induced by Treg cells” value (“senescent … by Treg cells” below) is “dramatically reduced”. Moreover, in [6] (setting [13]), the “cPLA2α expression in Treg-induced senescent T cells” value (shortened to “cPLA2α expression”) is “significantly decreased both mRNA and protein expression of cPLA2α”. For the same molecule, the “CE and FFA in senescent T cells” value in assay [7] (CD8+ T cells pretreated with KU55933 (10 μM) 1 day, nTreg co-culture 3 days) was “markedly prevented Treg-induced up-regulation of CE and FFA”.

Turning to `CC(C)c1cc(C(C)C)c(CC(=O)NS(=O)(=O)Oc2c(C(C)C)cccc2C(C)C)c(C(C)C)c1` [avasimible], the “LD formation … by Treg cells” value in [5] (setting [11]) was “dramatically reduced”. Moreover, the “senescent … by Treg cells” value in assay [3] (setting [12]) was “dramatically reduced”. Moreover, the “cell senescence (SA-β-gal) in naïve T cells, substance alone” value (“cell senescence (SA-β-gal)” for short) in assay [8] (setting [14]) is reported as “does not induce cell senescence”. For the same molecule, the “total and sub-fractions of CE in senescent T cells” value in assay [7] (CD8+ T cells pretreated 24 hours, nTreg co-culture 3 days) was “did not significantly down-regulate total and sub-fractions of CE”. In assay [9] (setting [14]), the “LD formation (Oil-red O) in naïve T cells, substance alone” value (from here on “LD formation (Oil-red O)”) is “does not induce cell senescence and LD formation”.

As to `CCCCCCCCCCC[C@@H](C[C@@H]1OC(=O)[C@H]1CCCCCC)OC(=O)[C@H](CC(C)C)NC=O` [orlistat], the “cell senescence (SA-β-gal)” value in assay [8] (setting [14]) was “dramatically increased cell senescence”. In addition, the “LD formation (Oil-red O)” value in [9] (setting [14]) is reported as “promoted LD formation”.

With Phosphatidylethanolamine [PE], in assay [3], the “senescence induction” value is given as “markedly prevented senescence induction”.

Turning to `C[S+]([O-])c1ccc(-c2nc(-c3ccncc3)c(-c3ccc(F)cc3)[nH]2)cc1` (stereo not shown) [SB203580], in assay [5], the “LD formation … by Treg cells” value is listed as “significantly decreased Oil red O+ T cell populations”. Moreover, the “senescent … by Treg cells” value in assay [3] is recorded as “prevented senescence induction”. In [6], the “cPLA2α expression” value is listed as “dramatically suppressed the enhanced cPLA2α expression”. Also, the “cell senescence (SA-β-gal)” value in assay [8] is given as “did not promote cell senescence”. For the same molecule, the “CE and PC in senescent T cells” value in assay [7] is “significantly prevented the Treg-induced up-regulation of CE and down-regulation of PC”. In [9], the “LD formation (Oil-red O)” value is “did not promote cell senescence and LD formation”.

Take `O=C(O)C(=O)CBr` [3-BrPA]: in assay [1], the “suppressive activity of senescent T cells on proliferation of effector T cells” value was “inhibited their suppressive activity”. The “secretion of pro-inflammatory cytokines by senescent T cells” value in [2] is “significantly decreased”.

Regarding `N#CC(=C(/N)Sc1ccccc1N)/C(C#N)=C(\N)Sc1ccccc1N` [U0126], in assay [5], the “LD formation … by Treg cells” value is “significantly decreased Oil red O+ T cell populations”. For the same molecule, in assay [3], the “senescent … by Treg cells” value is on record as “prevented senescence induction”. Also, the “cPLA2α expression” value in assay [6] is “dramatically suppressed the enhanced cPLA2α expression”. The “cell senescence (SA-β-gal)” value in assay [8] is “did not promote cell senescence”. For the same molecule, the “CE and PC in senescent T cells” value in [7] was “significantly prevented the Treg-induced up-regulation of CE and down-regulation of PC”. In [9], the “LD formation (Oil-red O)” value is “did not promote cell senescence and LD formation”.

Take `Cc1ccc(S(=O)(=O)OCC(=O)Nc2ccc(C(=O)O)c(O)c2)cc1` [S3I-201]: in assay [5] (setting [11]), the “LD formation … by Treg cells” value is given as “significantly decreased Oil red O+ T cell populations”. Moreover, in [3] (setting [12]), the “senescent … by Treg cells” value was “prevented senescence induction”. Further, the “cPLA2α expression” value in assay [6] (setting [13]) is “dramatically suppressed the enhanced cPLA2α expression”. The “cell senescence (SA-β-gal)” value in assay [8] (setting [14]) is “did not promote cell senescence”. Further, the “CE and PC in senescent T cells” value in assay [7] (setting [15]) was “significantly prevented the Treg-induced up-regulation of CE and down-regulation of PC”. Further, the “LD formation (Oil-red O)” value in [9] (setting [14]) is “did not promote cell senescence and LD formation”.

For `CCCCC/C=C\C/C=C\C/C=C\C/C=C\CCCC(=O)C(F)(F)F` [ATK], the “senescent … by Treg cells” value in assay [3] (setting [12]) is given as “can prevent T cell senescence”. Further, the “anti-tumor immunity and tumor immunotherapy, ATK” value in assay [10] is “enhances anti-tumor immunity and tumor immunotherapy in vivo”.

Regarding Lysophosphatidylcholine [LPC], in assay [3], the “senescence induction” value is given as “markedly prevented senescence induction”.

Regarding `CCCCCCCCCCCCC/C=C/[C@@H](O)[C@H](CO)NC(C)=O` [Cer, C2-Ceramide], in [3], the “senescence induction” value is given as “markedly prevented senescence induction”.

As for `CSC[C@H]1O[C@@H](n2cnc3c(N)ncnc32)[C@H](O)[C@@H]1O` [MTA], the “LD formation … by Treg cells” value in assay [5] (setting [11]) is “significantly decreased Oil red O+ T cell populations”. For the same molecule, the “senescent … by Treg cells” value in assay [3] (setting [12]) was “prevented senescence induction”. Also, in assay [6] (setting [13]), the “cPLA2α expression” value is on record as “dramatically suppressed the enhanced cPLA2α expression”. Further, the “cell senescence (SA-β-gal)” value in assay [8] (setting [14]) is listed as “did not promote cell senescence”. In assay [7] (setting [15]), the “CE and PC in senescent T cells” value is “significantly prevented the Treg-induced up-regulation of CE and down-regulation of PC”. Besides, the “LD formation (Oil-red O)” value in assay [9] (setting [14]) is “did not promote cell senescence and LD formation”.
